Laboratory results from ChEMBL document CHEMBL3392994, “Methoxyflavones from Stachys glutinosa with binding affinity to opioid receptors: in silico, in vitro, and in vivo studies” (J Nat Prod, 2015).
pKi: −log10 of the molar value. Active and inactive are the calls of the source. No cut-off for these calls is given here.

Experiments:
Mu-type opioid receptor = Mu-type opioid receptor (Mus musculus, UniProt P42866); assay: Displacement of [3H]DAMGO from mu opioid receptor in CD1 mouse whole brain minus cerebellum membranes by liquid scintillation counting; assay type: tissue-based, Membrane
Mus musculus [1] = species: Mus musculus; assay: Selectivity ratio of Ki for delta opioid receptor in CD1 mouse whole brain minus cerebellum membranes to Ki for mu opioid receptor in CD1 mouse whole brain minus cerebellum membranes; assay type: tissue-based
[2] = molecular target: Delta-type opioid receptor (Mus musculus, UniProt P32300); assay: Displacement of [3H]DPDPE from delta opioid receptor in CD1 mouse whole brain minus cerebellum membranes by liquid scintillation counting; assay type: tissue-based, Membrane
Mus musculus [3] = assay: Inhibition of morphine-induced analgesia in CD1 mouse model at 40 mg/kg, ip pretreated 30 mins before 5 mg/kg, sc morphine injection and measured 30 to 120 mins after morphine treatment by tail-flick assay relative to control; assay type: functional, organism-based
Mus musculus [4] = assay: Analgesic activity in acute pain CD1 mouse model assessed as withdrawal latency from radiant heat source at 40 to 80 mg/kg, ip by tail-flick assay; assay type: functional, organism-based
Mus musculus [5] = assay: Inhibition of morphine-induced analgesia in CD1 mouse model at 80 mg/kg, ip pretreated 30 mins before 5 mg/kg, sc morphine injection and measured 30 to 120 mins after morphine treatment by tail-flick assay relative to control; assay type: functional, organism-based

Row | pKi (Mu-type opioid receptor) | Ratio Ki (Mus musculus [1]) | pKi [2] | Structure (SMILES) | inhibition (Mus musculus [3]) | Activity (Mus musculus [4]) | inhibition (Mus musculus [5])
1 | 4.55 | 0.43 | 4.92 | COc1ccc(-c2cc(=O)c3c(O)c(OC)c(O)cc3o2)cc1OC [EUPATILIN] |  |  | 
2 | 6.08 | 4.36 | 5.44 | COc1c(OC)c(O)c2c(=O)cc(-c3ccc(O)cc3)oc2c1OC [XANTHOMICROL] | inactive | inactive | Active
3 | < 4.30 |  | 4.43 | COc1cc(-c2cc(=O)c3c(O)c(OC)c(OC)c(OC)c3o2)ccc1O |  |  | 
4 | < 4.30 |  | < 4.30 | COc1ccc(-c2cc(=O)c3c(O)c(OC)c(OC)c(OC)c3o2)cc1 [GARDENIN B] |  |  | 
5 | 4.73 | 0.68 | 4.90 | COc1c(OC)c(O)c2c(=O)cc(-c3ccc(O)c(O)c3)oc2c1OC [SIDERITIFLAVONE] |  |  | 

The next lines start with the compound.

Row | Structure (SMILES) | pKi (Mu-type opioid receptor) | Ratio Ki (Mus musculus [1]) | pKi [2] | inhibition (Mus musculus [3]) | Activity (Mus musculus [4]) | inhibition (Mus musculus [5])
6 | C=CC(C)(O)CC[C@@]1(C)[C@H](C)CC[C@]2(C)[C@@H]1C[C@@H](O)[C@H]1O[C@]12C (stereo partly drawn) | < 4.30 |  | 4.60 |  |  | 
7 | COc1ccc(-c2cc(=O)c3c(OC)c(OC)c(OC)c(OC)c3o2)cc1 [TANGERETIN] | 4.79 | 0.43 | 5.15 |  |  | 
8 | C=CC(C)(O)CC[C@@]1(C)[C@H](C)CC[C@@]2(C)C(C)=CC(=O)C[C@H]12 (stereo partly drawn) | 4.39 |  | 4.63 |  |  | 
